Data: PMC10744269, “Frentizole, a Nontoxic Immunosuppressive Drug, and Its Analogs Display Antitumor Activity via Tubulin Inhibition” (International Journal of Molecular Sciences, 2023)

Legend:
[1] = system: HeLa (cervix epithelioid carcinoma cells); test: MTT antiproliferative assay, HeLa; format: cell-based, human; conditions: for IC50: Homo sapiens, HeLa
Description: (§1) The cell proliferation inhibitory activity of frentizole and the synthesized analogs 2–10 against representative human cancer cell lines was assayed using the MTT method (Table 1). […] For those compounds inhibiting cell proliferation by more than 40% with respect to the untreated controls at the threshold concentration, the IC50 values were calculated by measuring the proliferation inhibition in a range of concentrations from 100 to 0.001 μM and adjusting the resulting curves to sigmoidal dose–response curves. The selected cell lines were HeLa (cervix epithelioid carcinoma cells), one of the most frequent kinds of cancer, with good sensitivity against antimitotic agents, and the glioblastoma cell lines U87MG and A172. To study the selectivity of the compounds toward cancer cells versus nontumor cells, the compounds were also evaluated against the nontumorigenic cell line HEK-293 (human embryonic kidney cells) and the murine macrophage cell line J774. Sulfonamide ABT-751, as a representative of the colchicine-site ligands, and the first-line drug for the treatment of glioblastoma multiforme temozolomide (TMZ) were used as reference compounds.
(§2) The cell lines were from ATTC (Manassas, VA, USA). HeLa (human cervix epithelioid carcinoma), U87 MG (human glioblastoma), A172 (human glioblastoma), and HEK-293 (human embryonic kidney) were grown in Dulbecco’s modified Eagle’s medium (DMEM, Gibco, Waltham, MA, USA), supplemented with 10% (v/v) heat-inactivated fetal bovine serum (HIFBS, Sigma-Aldrich, St. Louis, MO, USA), 2 mM L-glutamine, 100 μg/mL streptomycin, and 100 units/mL penicillin (Gibco, Waltham, MA, USA) at 37 °C in humidified 95% air and 5% CO2. The cells were periodically tested for Mycoplasma infection using MycoAlert kit (Lonza, Norwest, Australia), and only mycoplasma-free cells were employed in the experiments.
(§3) The effect of the compounds on the proliferation of human tumor cell lines was determined as previously described using the MTT reagent 3-[4,5-dimethylthiazol-2-yl]-2,5-diphenyltetrazolium bromide, MTT Thiazolyl Blue Tetrazolium Bromide, Sigma-Aldrich, St. Louis, MO, USA) dissolved in PBS at 5 mg/mL, according to the manufacturer’s instructions. The cells were incubated in 96-well plates (100 μL/well), in complete DMEM or RPMI 1640 medium (see above), at 37 °C and 5% CO2 atmosphere for 24 h to allow for cell attachment to the plate at the following concentrations: 30,000 cells/mL (U87MG, A172, J774, and HEK-293 cells) or 15,000 cells/mL (HeLa cells). Then, every compound was added (10 μL/well) to a final concentration of 10 μM. Untreated cells were used as negative controls. The antiproliferative activity of the compounds was measured 72 h after drug exposure using the MTT assay. The IC50 value (the drug concentration required to inhibit 50% of the cell growth in respect the untreated control) was determined for those compounds showing antiproliferative effects in the initial screening at 10 μM. For this purpose, the compounds were used at different concentrations ranging from 10^−10 to […]. Measurements were performed in triplicate and each experiment was repeated three times. The IC50 values were determined using Origin software (OriginLab, Washington, DC, USA).

[2] = system: Survival motor neuron protein; parameters: method as in SuperPred [40]; conditions: Table S2, CHEMBL1293232; ref SuperPred [40]; cited from earlier work
[3] = system: microtubule network of HeLa cells; test: Immunofluorescence confocal microscopy of cellular microtubules; format: cell-based, human; conditions: 2 μM, 24 h
Description: Therefore, we studied the effect of the compounds after 24 h of treatment on the microtubule network of HeLa cells by immunofluorescence confocal microscopy (Figure 5) through α-tubulin and nuclei labeling. […] These morphological effects are typical of tubulin inhibitors. Again, the effects are more pronounced for 5b than for 3ea, frentizole, and 5f.
HeLa cells (8 × 10^4 cells/mL) were seeded on 0.01% poly-L-lysine precoated square glass coverslips (22 mm^2), deposited on 6-well plates (1 coverslip/well), and incubated in complete DMEM medium at 37 °C and 5% CO2 atmosphere. After 24 h the culture medium was replaced by fresh complete DMEM, and the cells were incubated in the presence of 2 μM or absence of the selected compounds (3ea, 5b, 5f, and frentizole 6e) for 24 h. Untreated cells were used as negative controls. Then the medium was removed, and the coverslips were washed three times with PBS, fixed in 4% formaldehyde in PBS for 10 min, permeabilized with 0.5% Triton X-100 (Sigma-Aldrich, St. Louis, MO, USA) in PBS for 90 s at 4 °C, blocked with 10% BSA in PBS for 30 min and washed four times with PBS. Then, the coverslips were incubated for 1 h with anti-α-tubulin mouse monoclonal antibody (Sigma-Aldrich, St. Louis, MO, USA, 1:200 in PBS containing 3% BSA). After four washes with PBS, the coverslips were incubated with fluorescent secondary antibody Alexa Fluor 488 goat anti-mouse IgG (Molecular Probes, Invitrogen, Eugenen, OR, USA, 1:400 in PBS containing 1% BSA) for 1.5 h in darkness. After four washes with PBS, a droplet of ProLong™ Gold Antifade Mountant containing DAPI (ThermoFisher, Waltham, MA, USA) was added for cell nuclei staining. The samples were analyzed via confocal microscopy using a LEICA SP5 microscope DMI-6000V model coupled to a LEICA LAS AF 4.0 software computer.

[4] = system: A172 (human glioblastoma); test: MTT antiproliferative assay, A-172; format: cell-based; conditions: 72 h after drug treatment, threshold 10 μM
Description: as §1, §2, §3

[5] = system: Ras-related protein Rab-9A; parameters: method as in SuperPred [40]; conditions: Table S2, CHEMBL1293294; ref SuperPred [40]; cited from earlier work
[6] = system: HeLa cells; test: Cell cycle analysis (PI staining, flow cytometry); format: cell-based, human; conditions: 2 μM, 24-72 h
Description: To study the effects of the compounds on the cell cycle, cells were incubated for different times with the compounds and, thereafter, their DNA was stained using propidium iodide (PI) to allow for quantification by flow cytometry. […] The brominated ethyl BZTs (5b and 5f) were faster to show the subG0/G1 decrease, at 24 h, followed by an apparent stabilization of the G0/G1 population at 48 h, which abruptly fell at the 72 h time point.
HeLa cells (8 × 10^4 cells/mL) were seeded in 6-well plates (2 mL/well) and incubated in complete DMEM medium at 37 °C and 5% CO2 atmosphere for 24 h. Then, the medium was replaced with fresh complete DMEM in the presence or absence of the selected compounds (3ea, 5b, 5f, and frentizole 6e) at 2 μM. Untreated cells were used as negative controls. Cells were harvested 24, 48, or 72 h following treatment and fixed in ice-cold ethanol/PBS (7:3) overnight. The cells were then washed twice with PBS, suspended in PBS and incubated overnight in darkness with 0.2 mg/mL RNase A (Sigma-Aldrich, St. Louis, MO, USA), 50 μg/mL propidium iodide (Sigma-Aldrich, St. Louis, MO, USA), and Triton 10× at room temperature. A BD Accuri™ C6 Plus Flow Cytometer (BD Bioscience, Madrid, Spain) was used to analyze samples, and BD Accuri™ C6 Software (version 1.0.264.21) was used for data analysis.

[7] = system: murine macrophage cell line J774; test: MTT antiproliferative assay, J774; format: cell-based; conditions: Mus musculus, 72 h after drug treatment, threshold 10 μM, read-out: IC50 J-774
Description: as §1, §3

[8] = system: U87 MG (human glioblastoma); test: MTT antiproliferative assay, U-87 MG; format: cell-based; conditions: 72 h after drug treatment, threshold 10 μM
Description: as §1, §2, §3

[9] = parameters: method as in PMID 24858403; conditions: cited from earlier work
[10] = system: nontumorigenic cell line HEK-293 (human embryonic kidney cells); test: MTT antiproliferative assay, HEK-293; format: cell-based; conditions: HEK293, 72 h after drug treatment, threshold 10 μM
Description: as §1, §2, §3

[11] = system: U87 MG (human glioblastoma); parameters: method as in PMID 37376146; conditions: cited from earlier work
[12] = Solubility (remark); format: physicochemical
[13] = 72 h after drug treatment, threshold 10 μM

Compound	activity against HeLa cells (in words) [1]	IC50 HeLa [1, 13]	IC50 [1, 13] [µM]	Min Activity (Assay type Potency) [2] [nm]	effect on the microtubule network (in words) [3]	IC50 [4] [µM]	Min Activity (Assay type Potency) [5] [nm]	effect on the cell cycle populations (in words) ([6]; listed as Frentizole (6e))	effect on the cell cycle populations (in words) ([6]; listed as frentizole)	IC50 [7] [µM]	IC50 [8] [µM]	blood–brain barrier crossing [9]	IC50 [10] [µM]	effect on the cell cycle populations (in words) [6]	in vitro IC50 against U87MG [11]	solubility (in words) [12]
COc1ccc2nc(NC(=O)Nc3ccccc3)sc2c1 [Compound 6e, 1-(6-Methoxybenzo[d]thiazol-2-yl)-3-phenylurea, reference compound]	significant activity	low micromolar range	1	891.3	severe microtubule network disruption	> 10	707.9	progressive accumulation of cells in the G2/M population	no increase in the subG0/G1 population was observed	> 10	7.33	able to cross the blood–brain barrier	6.86			
COc1ccc2nc(N(C)C(=O)c3ccccc3)sc2c1 [Compound 3ea, N-(6-methoxybenzo[d]thiazol-2-yl)-N-methylbenzamide]	significant activity		0.74		severe microtubule network disruption	> 10				> 10	> 10		> 10	weakest effect on the cell populations		
Cn1nnc2c(C(N)=O)ncn2c1=O [temozolomide]															millimolar range	
CCNC(=O)Nc1nc2c(Br)cc(C)cc2s1 [Compound 5b, 1-(4-Bromo-6-methylbenzo[d]thiazol-2-yl)-3-ethylurea]	significant activity		0.49		severe microtubule network disruption	> 10				> 10	> 10		> 10	arrest at G2/M in the 24 to 48 h period		
CCNC(=O)Nc1nc2c(Br)c(C)c(C)cc2s1 [Compound 5d, 1-(4-Bromo-5,6-dimethylbenzo[d]thiazol-2-yl)-3-ethylurea]	significant activity		1.24			> 10				> 10	> 10		> 10			very limited solubility
CCNC(=O)Nc1nc2c(Br)cc(OC)cc2s1 [Compound 5f, 1-(4-Bromo-6-methoxybenzo[d]thiazol-2-yl)-3-ethylurea]	significant activity		0.7		severe microtubule network disruption	> 10				> 10	> 10		> 10	increase in the subG0/G1 population progressively occurs at the 48 h to 72 h timepoints		
